Source: ChEMBL document CHEMBL5331124, “Degradation of Hexokinase 2 Blocks Glycolysis and Induces GSDME-Dependent Pyroptosis to Amplify Immunogenic Cell Death for Breast Cancer Therapy” (J Med Chem, 2023)
Calls of active or inactive are those of the source. The calls are words filed in the database; no cut-off is given here.

Legend:
[1] = system: 4T1; test: Induction of pyroptosis in mouse 4T1 cells assessed as increase in N-terminal GSDME level at 20 uM incubated for 36 hrs; type: functional, cell-based
[2] = system: MCF7; test: Antiproliferative activity against human MCF7 cells assessed as cell growth inhibition measured for 72 hrs by MTT assay; type: functional, cell-based; settings: MCF7, 72 h
[3] = target: Protein cereblon/Hexokinase-2 (Mus musculus) (UniProt O08528+Q8C7D2); test: PROTAC activity at CRBN/HK2 in mouse 4T1 cells assessed as […] ternary complex formation at 10 uM incubated for 24 hrs; type: cell-based
Protein cereblon/Hexokinase-2 (Mus musculus), sequence (Q8C7D2 whole entry, looked up, one chain of several): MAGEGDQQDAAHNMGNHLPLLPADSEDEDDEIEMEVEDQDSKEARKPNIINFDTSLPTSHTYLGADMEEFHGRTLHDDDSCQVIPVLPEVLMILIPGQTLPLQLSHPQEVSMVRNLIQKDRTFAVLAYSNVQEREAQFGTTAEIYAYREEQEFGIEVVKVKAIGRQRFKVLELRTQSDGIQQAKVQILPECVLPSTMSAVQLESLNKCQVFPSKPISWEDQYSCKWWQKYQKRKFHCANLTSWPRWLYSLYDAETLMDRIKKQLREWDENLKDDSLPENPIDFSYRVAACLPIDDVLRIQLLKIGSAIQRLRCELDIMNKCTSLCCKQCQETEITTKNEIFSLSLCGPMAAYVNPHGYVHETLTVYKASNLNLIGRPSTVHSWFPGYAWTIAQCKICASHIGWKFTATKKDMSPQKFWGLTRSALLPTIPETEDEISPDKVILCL

[4] = system: 4T1; test: Induction of pyroptosis in mouse 4T1 cells assessed as increase in full length GSDME level at 20 uM incubated for 36 hrs; type: functional, cell-based
[5] = Toxicity in BALB/c mouse implanted with mouse 4T1 cells assessed as effect on red blood cells at 50 mg/kg, ip measured after 25 days in presence of cisplatin by routine blood test; type: organism-based; settings: in vivo, 600 h, time 25 day
[6] = system: HUVEC-T1 cell; test: Inhibition of colony formation in human HUVEC-T1 cell at 5 to 20 uM incubated for 48 hrs by giemsa staining based analysis; type: functional; settings: dose 5-20 µM
[7] = system: 4T1; test: Antitumor activity against mouse 4T1 cells implanted in BALB/c mouse assessed as reduction in HK2 proetin level […] at 50 mg/kg, ip measured after 25 days in presence of cisplatin by Western blot analysis; type: functional, organism-based; settings: time 25.0 day
[8] = system: 4T1; test: Inhibition of glycolysis in mouse 4T1 cells assessed as reduction in extracellular acidification rate at 20 uM incubated for 1 to 4 hrs by seahorse analyzer method; type: functional, cell-based; settings: time 1-4 hrs
[9] = system: 4T1; test: Antitumor activity against mouse 4T1 cells implanted in BALB/c mouse model assessed as reduction tumor cell proliferation at 50 mg/kg, ip measured after 25 days by H and E staining based analysis; type: functional, organism-based; settings: time 25.0 day
[10] = target: Protein cereblon/Hexokinase-2 (Homo sapiens) (UniProt P52789+Q96SW2); test: PROTAC activity at CRBN/HK2 in human MDA-MB-231 cells assessed as HK2 degradation at 20 uM incubated for 36 hrs; type: cell-based
Protein cereblon/Hexokinase-2 (Homo sapiens), sequence (P52789 whole entry, looked up): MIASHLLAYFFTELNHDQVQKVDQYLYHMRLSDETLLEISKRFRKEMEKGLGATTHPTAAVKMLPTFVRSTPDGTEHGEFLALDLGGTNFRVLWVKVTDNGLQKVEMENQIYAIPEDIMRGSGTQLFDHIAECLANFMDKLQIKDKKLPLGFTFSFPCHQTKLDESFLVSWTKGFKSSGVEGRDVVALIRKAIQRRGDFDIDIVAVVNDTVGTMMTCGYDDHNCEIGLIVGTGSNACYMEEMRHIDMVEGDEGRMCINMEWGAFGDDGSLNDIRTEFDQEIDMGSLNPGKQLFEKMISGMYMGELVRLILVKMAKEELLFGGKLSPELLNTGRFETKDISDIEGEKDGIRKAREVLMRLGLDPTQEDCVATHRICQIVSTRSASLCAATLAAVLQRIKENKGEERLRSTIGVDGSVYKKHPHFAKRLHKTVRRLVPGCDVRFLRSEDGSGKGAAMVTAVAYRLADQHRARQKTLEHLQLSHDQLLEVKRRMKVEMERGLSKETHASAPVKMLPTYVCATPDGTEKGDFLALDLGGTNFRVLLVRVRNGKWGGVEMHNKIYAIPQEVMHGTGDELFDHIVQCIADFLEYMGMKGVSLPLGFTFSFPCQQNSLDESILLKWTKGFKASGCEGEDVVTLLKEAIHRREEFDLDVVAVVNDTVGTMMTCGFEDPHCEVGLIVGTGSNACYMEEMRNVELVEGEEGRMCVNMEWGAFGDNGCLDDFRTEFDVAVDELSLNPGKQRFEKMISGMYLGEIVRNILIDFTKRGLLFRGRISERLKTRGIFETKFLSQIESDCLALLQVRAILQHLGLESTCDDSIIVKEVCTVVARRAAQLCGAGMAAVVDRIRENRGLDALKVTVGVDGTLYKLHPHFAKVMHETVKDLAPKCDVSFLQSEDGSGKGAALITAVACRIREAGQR
Protein cereblon/Hexokinase-2 (Homo sapiens), sequence (Q96SW2 whole entry, looked up): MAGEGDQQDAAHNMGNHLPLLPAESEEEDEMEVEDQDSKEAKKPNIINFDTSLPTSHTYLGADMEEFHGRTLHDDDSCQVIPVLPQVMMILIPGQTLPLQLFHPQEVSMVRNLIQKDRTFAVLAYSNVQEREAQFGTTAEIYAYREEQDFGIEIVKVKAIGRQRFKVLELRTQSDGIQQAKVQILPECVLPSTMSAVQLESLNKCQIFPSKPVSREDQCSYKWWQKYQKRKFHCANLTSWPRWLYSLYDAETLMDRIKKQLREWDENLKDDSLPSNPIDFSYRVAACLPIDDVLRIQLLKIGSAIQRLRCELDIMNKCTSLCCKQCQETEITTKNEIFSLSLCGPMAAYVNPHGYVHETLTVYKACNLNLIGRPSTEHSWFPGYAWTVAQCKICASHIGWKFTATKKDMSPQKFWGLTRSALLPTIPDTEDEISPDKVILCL

[11] = system: 4T1; test: Antitumor immunity against mouse 4T1 cells implanted in BALB/c mouse model assessed as upregulation of IFN-gamma expression in mouse tumor by ELISA analysis; type: functional, cell-based
[12] = Cytotoxicity against human HUVEC-T1 cell assessed as inhibition of cell growth at 1 to 100 uM incubated for 48 hrs by CCK-8 assay; type: toxicity, cell-based; settings: dose 1-100 µM
[13] = system: 4T1; test: Induction of mitochondrial damage in mouse 4T1 cells assessed as reduction in lactic acid production at 20 uM measured for 36 hrs; type: functional, cell-based
[14] = Toxicity in BALB/c mouse implanted with mouse 4T1 cells assessed as pathological changes in lung at 50 mg/kg, ip measured after 25 days in presence of cisplatin by Hematoxylin -eosin staining based analysis; type: organism-based; settings: in vivo, 600 h, time 25 day
[15] = Toxicity in BALB/c mouse implanted with mouse 4T1 cells assessed as pathological changes in lung at 50 mg/kg, ip measured after 25 days by Hematoxylin -eosin staining based analysis; type: organism-based; settings: in vivo, 600 h, time 25 day
[16] = system: 4T1; test: Antiproliferative activity against mouse 4T1 cells expressing SiHK2 assessed as cell growth inhibition measured for 72 hrs by MTT assay; type: functional, cell-based
[17] = Toxicity in BALB/c mouse implanted with mouse 4T1 cells assessed as effect on hemoglobin level at 50 mg/kg, ip measured after 25 days by routine blood test; type: organism-based; settings: in vivo, 600 h, time 25 day
[18] = Toxicity in BALB/c mouse implanted with mouse 4T1 cells assessed as colon damage at 50 mg/kg, ip measured after 25 days in presence of cisplatin by H and E staining based analysis; type: organism-based; settings: in vivo, 600 h, time 25 day
[19] = target: T1, Hexokinase-2 (Mus musculus) (UniProt O08528); test: (§1) Induction of HK2 degradation in mouse 4T1 cells measured for 36 hrs; type: cell-based
T1 sequence (whole entry): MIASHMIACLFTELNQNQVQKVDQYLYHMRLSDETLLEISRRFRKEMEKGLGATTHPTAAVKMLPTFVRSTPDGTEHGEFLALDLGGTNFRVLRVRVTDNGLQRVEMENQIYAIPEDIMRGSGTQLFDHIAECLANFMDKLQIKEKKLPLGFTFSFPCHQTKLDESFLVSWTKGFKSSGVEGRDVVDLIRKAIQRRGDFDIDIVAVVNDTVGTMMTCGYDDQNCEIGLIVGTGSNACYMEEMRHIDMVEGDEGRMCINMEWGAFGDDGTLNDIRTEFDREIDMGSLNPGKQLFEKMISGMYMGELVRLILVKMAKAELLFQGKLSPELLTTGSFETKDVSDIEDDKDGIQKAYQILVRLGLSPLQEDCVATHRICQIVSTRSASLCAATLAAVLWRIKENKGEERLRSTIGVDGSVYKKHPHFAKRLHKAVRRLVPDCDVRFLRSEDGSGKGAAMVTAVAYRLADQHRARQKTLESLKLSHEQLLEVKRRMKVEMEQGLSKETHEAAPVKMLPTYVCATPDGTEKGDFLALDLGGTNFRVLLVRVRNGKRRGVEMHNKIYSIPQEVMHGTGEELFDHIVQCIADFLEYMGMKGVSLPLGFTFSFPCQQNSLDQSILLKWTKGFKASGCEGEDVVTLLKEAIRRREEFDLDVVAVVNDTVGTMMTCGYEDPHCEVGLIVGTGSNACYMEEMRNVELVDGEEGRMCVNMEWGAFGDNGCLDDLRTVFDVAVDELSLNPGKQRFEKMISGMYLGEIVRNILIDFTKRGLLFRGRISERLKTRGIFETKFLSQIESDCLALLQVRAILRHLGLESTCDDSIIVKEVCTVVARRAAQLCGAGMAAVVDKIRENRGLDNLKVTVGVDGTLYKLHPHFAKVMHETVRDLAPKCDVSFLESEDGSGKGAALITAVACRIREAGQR

[20] = target: T2, Hexokinase-2 (Mus musculus, UniProt O08528); test: as §1; type: cell-based
T2 sequence (O08528 whole entry): T1 sequence (whole entry)

[21] = system: 786-0; test: Antiproliferative activity against human 786-0 cells assessed as cell growth inhibition measured for 72 hrs by MTT assay; type: functional, cell-based; settings: 786-0, 72 h
[22] = target: T1, Hexokinase-2 (Mus musculus); test: Induction of HK2 degradation in mouse 4T1 cells at 20 uM measured for 36 hrs by Western blot analysis relative to control; type: cell-based
[23] = Toxicity in BALB/c mouse implanted with mouse 4T1 cells assessed as effect on platelet count at 50 mg/kg, ip measured after 25 days in presence of cisplatin by routine blood test; type: organism-based; settings: in vivo, 600 h, time 25 day
[24] = system: 4T1; test: Antitumor immunity against mouse 4T1 cells implanted in BALB/c mouse model assessed as increase in cleaved caspase-3 expression in tumor; type: functional, cell-based
[25] = system: MDA-MB-231; test: Induction of pyroptosis in human MDA-MB-231 cells assessed as decrease in full length caspase-3 level at 20 uM incubated for 36 hrs by Western blot analysis; type: functional, cell-based
[26] = Toxicity in BALB/c nude mouse xenografted with human MDA-MB-231 cells assessed as effect on platelet count at 50 mg/kg, ip measured after 30 days by routine blood test; type: organism-based; settings: in vivo, 720 h, time 30 day
[27] = Toxicity in BALB/c mouse implanted with mouse 4T1 cells assessed as effect on hemoglobin level at 50 mg/kg, ip measured after 25 days in presence of cisplatin by routine blood test; type: organism-based; settings: in vivo, 600 h, time 25 day

Compound: O=C1CCC(N2C(=O)c3cccc(NCCCCNC(=O)c4nn(Cc5ccc(Cl)cc5Cl)c5ccccc45)c3C2=O)C(=O)N1 (configuration not stated)
- Activity [1]: Active
- IC50 [2]: 21.7 µM
- Activity [3]: Active
- Activity [4]: Active
- Activity [5]: Non-Toxic
- inhibition [6]: inactive
- Activity [7]: Active
- inhibition [8]: Active
- Activity [9]: Active
- Activity [10]: Active
- Activity [11]: Active
- Activity [12]: Toxic
- Activity [13]: Active
- Activity [14]: Non-Toxic
- Activity [15]: Non-Toxic
- Activity [16]: inactive
- Activity [17]: Non-Toxic
- Activity [18]: Non-Toxic
- Activity [19]: Dose-Dependent Effect
- DC50 [20]: 2.56 µM
- IC50 [21]: 34.1 µM
- Activity [22]: 71.1%
- Activity [23]: Non-Toxic
- Activity [24]: Active
- Activity [25]: Active
- Activity [26]: Non-Toxic
- Activity [27]: Non-Toxic
